Measurements taken from US11077090B2, “Compounds and compositions and uses thereof” (Sunovion Pharmaceuticals Inc., priority 2016, dated 2021).
Where two headings read alike, the source gives them in different places.

Test system: compound-treated mice
Test: Neuropharmacological assay (SmartCube): behavioral activity signature and minimal effective dose
Type: in vivo
Settings: for minimal effective dose: Mus musculus, ip, MED = dose having 50% or more total activity; for AD: ADHD (probability of activity signature) / AG: analgesic (probability of activity signature) / AX: anxiolytic (probability of activity signature) / CE: cognitive enhancer (probability of activity signature) / DP: anti-depressant (probability of activity signature) / MS: mood stabilizer (probability of activity signature) / PS: anti-psychotic (probability of activity signature) / SD: sedative hypnotic (probability of activity signature) / UN: uncharacterized CNS activity (probability of activity signature): i.p. 15 min before test, most efficacious dose(s)
Summary of the method: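 Video-recorded behavior is compared algorithmically against a reference-compound database, yielding class probabilities (best dose reported). Compounds given i.p. in NMP/PEG/propylene glycol 15 min pre-test at 3 doses; potency as MED, the dose (mpk, range usually 0.3–30) reaching ≥50% total activity.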

[1] = read-out: Potency: minimal effective dose (MED)
[2] = read-out: Potency: minimal effective dose (MED), binned

Row | SMILES | minimal effective dose [1] [mg/kg] | AD: ADHD (probability of activity signature) | AG: analgesic (probability of activity signature) | AX: anxiolytic (probability of activity signature) | CE: cognitive enhancer (probability of activity signature) | DP: anti-depressant (probability of activity signature) | MS: mood stabilizer (probability of activity signature) | PS: anti-psychotic (probability of activity signature) | SD: sedative hypnotic (probability of activity signature) | UN: uncharacterized CNS activity (probability of activity signature) | minimal effective dose [2] [mg/kg]
1 | COc1ccc2c(c1)[C@H](N)[C@@H](C)OC2.Cl [Example 85] | 3 to 10 | + (LOQ ≤ + <5%) | +++ (25% ≤ +++ <50%) | ++ (5% ≤ ++ <25%) | ++ (5% ≤ ++ <25%) | ++ (5% ≤ ++ <25%) | + (LOQ ≤ + <5%) | + (LOQ ≤ + <5%) | + (LOQ ≤ + <5%) | +++ (25% ≤ +++ <50%) | 
2 | Cl.NC1COCc2c1ccc1ccccc21 (centres unmarked) [Example 50, 3,4-Dihydro-1H-benzo[h]isochromen-4-amine hydrochloride] | 10 to 30 | + (LOQ ≤ + <5%) | ++ (5% ≤ ++ <25%) | ++ (5% ≤ ++ <25%) | ++ (5% ≤ ++ <25%) | +++ (25% ≤ +++ <50%) | + (LOQ ≤ + <5%) | ++ (5% ≤ ++ <25%) | + (LOQ ≤ + <5%) | ++ (5% ≤ ++ <25%) | 
3 | COc1ccc2c(c1)[C@H](N)[C@@H](C)OC2 (single isomer, unassigned) [Example 171] |  | + (LOQ ≤ + <5%) | ++ (5% ≤ ++ <25%) | +++ (25% ≤ +++ <50%) | ++ (5% ≤ ++ <25%) | ++ (5% ≤ ++ <25%) | + (LOQ ≤ + <5%) | ++ (5% ≤ ++ <25%) | ++ (5% ≤ ++ <25%) | +++ (25% ≤ +++ <50%) | < 3
4 | C[C@@H]1OC[C@H](N)c2ccccc21.Cl (relative stereo) [Example 104, cis-1-Methylisochroman-4-amine hydrochloride] | 3 to 10 | + (LOQ ≤ + <5%) | ++ (5% ≤ ++ <25%) | ++ (5% ≤ ++ <25%) | ++ (5% ≤ ++ <25%) | ++ (5% ≤ ++ <25%) | + (LOQ ≤ + <5%) | ++ (5% ≤ ++ <25%) | ++ (5% ≤ ++ <25%) | +++ (25% ≤ +++ <50%) | 
5 | CC[C@@H]1OCc2ccc(F)cc2[C@H]1N [Example 182] |  | + (LOQ ≤ + <5%) | + (LOQ ≤ + <5%) | ++ (5% ≤ ++ <25%) | ++ (5% ≤ ++ <25%) | ++ (5% ≤ ++ <25%) | + (LOQ ≤ + <5%) | +++ (25% ≤ +++ <50%) | + (LOQ ≤ + <5%) | ++++ (50% ≤ ++++) | < 3
6 | C[C@H]1OCc2ccc(F)cc2[C@@H]1N [Example 183] |  | + (LOQ ≤ + <5%) | ++ (5% ≤ ++ <25%) | ++ (5% ≤ ++ <25%) | ++ (5% ≤ ++ <25%) | ++ (5% ≤ ++ <25%) | + (LOQ ≤ + <5%) | ++ (5% ≤ ++ <25%) | ++ (5% ≤ ++ <25%) | ++++ (50% ≤ ++++) | < 3
7 | C[C@@H]1OCc2ccccc2[C@@H]1N.Cl (relative stereo) [Example 72, cis-3-methylisochroman-4-amine hydrochloride] | 3 to 10 | + (LOQ ≤ + <5%) | ++ (5% ≤ ++ <25%) | ++ (5% ≤ ++ <25%) | ++ (5% ≤ ++ <25%) | ++ (5% ≤ ++ <25%) | + (LOQ ≤ + <5%) | ++ (5% ≤ ++ <25%) | ++ (5% ≤ ++ <25%) | +++ (25% ≤ +++ <50%) | 
8 | CCCN[C@H]1COCc2ccccc21.Cl [Example 265] |  | + (LOQ ≤ + <5%) | + (LOQ ≤ + <5%) | + (LOQ ≤ + <5%) | + (LOQ ≤ + <5%) | ++ (5% ≤ ++ <25%) | + (LOQ ≤ + <5%) | + (LOQ ≤ + <5%) | ++ (5% ≤ ++ <25%) | + (LOQ ≤ + <5%) | 3 to 10
9 | C#CCN[C@@H]1COCc2ccccc21.Cl [Example 263] |  | + (LOQ ≤ + <5%) | + (LOQ ≤ + <5%) | + (LOQ ≤ + <5%) | + (LOQ ≤ + <5%) | + (LOQ ≤ + <5%) | + (LOQ ≤ + <5%) | + (LOQ ≤ + <5%) | ++ (5% ≤ ++ <25%) | + (LOQ ≤ + <5%) | < 3
10 | Cl.NC1COCc2ccc(C(F)(F)F)cc21 (centres unmarked) [Example 9, 6-Trifluoromethylisochroman-4-amine hydrochloride] | 3 to 10 | + (LOQ ≤ + <5%) | ++ (5% ≤ ++ <25%) | ++ (5% ≤ ++ <25%) | ++ (5% ≤ ++ <25%) | ++ (5% ≤ ++ <25%) | + (LOQ ≤ + <5%) | ++ (5% ≤ ++ <25%) | + (LOQ ≤ + <5%) | +++ (25% ≤ +++ <50%) | 
11 | C[C@H]1OCc2ccc3ccccc3c2[C@@H]1N.Cl (single isomer, unassigned) [Example 90] | 10 to 30 | + (LOQ ≤ + <5%) | ++ (5% ≤ ++ <25%) | +++ (25% ≤ +++ <50%) | ++ (5% ≤ ++ <25%) | ++ (5% ≤ ++ <25%) | + (LOQ ≤ + <5%) | + (LOQ ≤ + <5%) | ++ (5% ≤ ++ <25%) | + (LOQ ≤ + <5%) | 
